Key:
C57BL/6 mice = test: Serum NO level in C57 mice after oral gavage; format: in vivo; conditions: oral gavage 150 mg/kg (positive drug 5 mg/kg), FIG. 1
From the text: Experimental method: 60 eight-week-old C57BL/6 mice (level: SPF; gender: male; source: Shanghai SLAC Laboratory Animal Co., Ltd.) were selected. […] were selected as the blank control. 12 mice were used as the positive drug control (isosorbide mononitrate). 12 mice were used as […] administration group. The other 32 mice were randomly divided into 4 groups, 8 mice per group, which are […] administration group, […] administration group, […] administration group, and […] administration group, respectively. The tested compounds of the positive drug control group and each administration group were dissolved in DMSO and then PEG400 was added thereto. The mixture was shaken and mixed thoroughly. At last, 10% of HP-β-CD was added. The mixture was shaken and mixed thoroughly. The ratio of each solvent was DMSO: PEG400:10% of HP-β-CD=5:67.5:27.5. The administration groups were administered by oral gavage at the dose of 150 mg/kg. The positive drug control group was administered at the dose of 5 mg/kg. The mice in each group were sacrificed by inhaling excess CO2 at 10 min, 30 min, 60 min, 120 min, 180 min, and 240 min after administration. The blood was collected into a 1.5 mL centrifuge tube, standing at room temperature for more than 30 min, and then centrifuged (3000 rpm, 10 min). The supernatant serum was aspirated, and stored at -80° C. for testing. After the blood was collected, the heart was cut with the thoracic aorta. Three parts of the heart were weighed and placed into cryovials, rapidly frozen in liquid nitrogen, and cryopreserved at -80° C. for testing. The aorta and aortic arch were weighed, rapidly frozen in liquid nitrogen, and cryopreserved at -80° C. for testing. The content of NO in the serum of C57BL/6 mice was determined by using the total NO test kit (Beyotime).

[1] = Release of nitric oxide in vitro (Griess reagent, nitrite); conditions: 10^−4 mol/L tested substance, phosphate buffer pH 7.4, cysteine 5 mmol/L, 37° C., 1 h; as nitrite
How it was run: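 Compounds at final 10^−4 mol/L in pH 7.4 phosphate buffer with 5 mmol/L cysteine, incubated at 37 °C. At 1 h, nitrite measured with Griess reagent (A540) against a nitrite standard curve; NO release expressed as nitrite.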

[2] = Plasma stability in vitro, mouse plasma; conditions: for Content of Tested Substance (n = 2): CD-1 mice plasma, 2 μM, 37° C., in % (unit assumed)
Procedure: (§1) Experimental method: The tested compounds (2 μM) were added into mouse or human plasma, and incubated at 37° C. Samples were taken at 0, 10, 30, 60 and 120 min respectively. The reaction was stopped by adding a stop agent. The mixture was sufficient shaken, and centrifuged at 4000 rpm for 10 min at 4° C. The supernatant was taken. The concentrations of the tested compounds and their metabolite (H130) in the supernatant were measured by LC-MS/MS.

[3] = Plasma stability in vitro, human plasma; conditions: for Content of Tested Substance (n = 2): human plasma, 2 μM, 37° C., in % (unit assumed)
Procedure: as §1

| Molecule | time after administration at which serum NO level rose to its maximum, then decreased (C57BL/6 mice) | Amount of Released No [1] | Content of Tested Substance (n = 2) ([2]; 0 min) | Content of Tested Substance (n = 2) ([2]; 10 min) | Content of Tested Substance (n = 2) ([2]; 30 min) | Content of Tested Substance (n = 2) ([2]; 60 min) | Content of Tested Substance (n = 2) ([2]; 120 min) | stability in mouse plasma ([2]; within 2 h) | Content of Tested Substance (n = 2) ([3]; 0 min) | Content of Tested Substance (n = 2) ([3]; 10 min) | Content of Tested Substance (n = 2) ([3]; 30 min) | Content of Tested Substance (n = 2) ([3]; 60 min) | Content of Tested Substance (n = 2) ([3]; 120 min) | stability in human plasma ([3]; within 2 h) |
| --- | --- | --- | --- | --- | --- | --- | --- | --- | --- | --- | --- | --- | --- | --- |
| 2-[4-(5,7-dimethoxy-4-oxo-3,4-dihydro-quinazolin-2-yl)-2,6-dimethyl-phenoxy]-ethyl 4-(2-oxo-3-nitroxymethyl-1,2,5-oxadiazol-3-methyl)oxy-4-oxo-butyrate [Compound H111] | 1 h | 52.12 µM | – | – | – | – | – | – | – | – | – | – | – | – |
| COc1cc(OC)c2c(=O)[nH]c(-c3cc(C)c(OCCO[N+](=O)[O-])c(C)c3)nc2c1 [Compound H101, 2-(4-(2-nitrooxy-ethoxy)-3,5-dimethylphenyl)-5,7-dimethoxyquinazolin-4(3H)-one] | 2 h | 5.97 µM | 100.0 | 101.4 | 94.8 | 99.7 | 99.1 | good stability | 100.0 | 99.5 | 96.4 | 97.5 | 95.8 | good stability |
| COc1cc(OC)c2c(=O)[nH]c(-c3cc(C)c(OCCOC(=O)OC4COC5C(O[N+](=O)[O-])COC45)c(C)c3)nc2c1 (stereo not drawn) [Compound H119, 2-[4-(5,7-dimethoxy-4-oxo-3,4-dihydro-quinazolin-2-yl)-2,6-dimethyl-phenoxy]-ethyl (6-nitroxy-hexahydrofuro[3,2-b]furan-3-yl)-carbonate] | 1 h | 1.24 µM | – | – | – | – | – | – | – | – | – | – | – | – |
